Reference: PubChem BioAssay (NCI)
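A five-concentration, 48-hour dose response in 96-well plates underlies each endpoint, interpolated linearly between surrounding concentrations. GI50 = concentration required for 50% inhibition of growth. TGI: concentration producing complete growth inhibition.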

Legend:
Assay in all cases: inhibition of tumour cell growth, NCI panel, 48 h
786-0 renal = system: 786-0 renal
A498 renal = system: A498 renal
A549 NSCLC = system: A549 NSCLC
ACHN renal = system: ACHN renal
BT-549 breast = system: BT-549 breast
CAKI-1 renal = system: CAKI-1 renal
CCRF-CEM leukemia = system: CCRF-CEM leukemia
DU-145 prostate = system: DU-145 prostate
HCC-2998 colon = system: HCC-2998 colon
HCT-116 colon = system: HCT-116 colon
HCT-15 colon = system: HCT-15 colon
HOP-92 NSCLC = system: HOP-92 NSCLC
HT29 colon = system: HT29 colon
K-562 leukemia = system: K-562 leukemia
KM12 colon = system: KM12 colon
LOX IMVI melanoma = system: LOX IMVI melanoma
M14 melanoma = system: M14 melanoma
MALME-3M melanoma = system: MALME-3M melanoma
MCF7 breast = system: MCF7 breast
MDA-MB-231 breast = system: MDA-MB-231 breast
NCI-H226 lung = system: NCI-H226 lung
NCI-H23 lung = system: NCI-H23 lung
NCI-H460 lung = system: NCI-H460 lung
NCI-H522 lung = system: NCI-H522 lung
NCI/ADR-RES ovarian = system: NCI/ADR-RES ovarian
OVCAR-3 ovarian = system: OVCAR-3 ovarian
OVCAR-4 ovarian = system: OVCAR-4 ovarian
OVCAR-5 ovarian = system: OVCAR-5 ovarian
OVCAR-8 ovarian = system: OVCAR-8 ovarian
PC-3 prostate = system: PC-3 prostate
SF-268 CNS = system: SF-268 CNS
SF-295 CNS = system: SF-295 CNS
SF-539 CNS = system: SF-539 CNS
SK-MEL-2 melanoma = system: SK-MEL-2 melanoma
SK-MEL-28 melanoma = system: SK-MEL-28 melanoma
SK-OV-3 ovarian = system: SK-OV-3 ovarian
SN12C renal = system: SN12C renal
SNB-19 CNS = system: SNB-19 CNS
SNB-75 CNS = system: SNB-75 CNS
SW-620 colon = system: SW-620 colon
T-47D breast = system: T-47D breast
TK-10 renal = system: TK-10 renal
U251 CNS = system: U251 CNS
UACC-257 melanoma = system: UACC-257 melanoma
UO-31 renal = system: UO-31 renal

SMILES: COc1ccc(C(=O)n2nc(/C=C/c3ccc(O)c(OC)c3)cc2/C=C/c2ccc(O)c(OC)c2)cc1
- GI50 (786-0 renal): 0.445 µM
- TGI (786-0 renal): 1.84 µM
- GI50 (A498 renal): 2.25 µM
- TGI (A498 renal): 7.26 µM
- GI50 (A549 NSCLC): 1.37 µM
- TGI (A549 NSCLC): 14 µM
- GI50 (ACHN renal): 0.388 µM
- TGI (ACHN renal): 17.2 µM
- GI50 (BT-549 breast): 0.466 µM
- TGI (BT-549 breast): 2.32 µM
- GI50 (CAKI-1 renal): 0.452 µM
- TGI (CAKI-1 renal): 15.3 µM
- GI50 (CCRF-CEM leukemia): 0.304 µM
- TGI (CCRF-CEM leukemia): > 100 µM
- GI50 (DU-145 prostate): 0.668 µM
- TGI (DU-145 prostate): 4.56 µM
- GI50 (HCC-2998 colon): 2.16 µM
- TGI (HCC-2998 colon): 9.19 µM
- GI50 (HCT-116 colon): 0.362 µM
- TGI (HCT-116 colon): 2.69 µM
- GI50 (HCT-15 colon): 0.338 µM
- TGI (HCT-15 colon): 5.96 µM
- GI50 (HOP-92 NSCLC): 0.609 µM
- TGI (HOP-92 NSCLC): 4.88 µM
- GI50 (HT29 colon): 0.482 µM
- TGI (HT29 colon): 2.24 µM
- GI50 (K-562 leukemia): 0.404 µM
- TGI (K-562 leukemia): > 100 µM
- GI50 (KM12 colon): 0.387 µM
- TGI (KM12 colon): 18.1 µM
- GI50 (LOX IMVI melanoma): 0.467 µM
- TGI (LOX IMVI melanoma): 3.15 µM
- GI50 (M14 melanoma): 0.328 µM
- TGI (M14 melanoma): 1.32 µM
- GI50 (MALME-3M melanoma): 0.556 µM
- TGI (MALME-3M melanoma): 3.59 µM
- GI50 (MCF7 breast): 0.303 µM
- TGI (MCF7 breast): 1.57 µM
- GI50 (MDA-MB-231 breast): 0.575 µM
- TGI (MDA-MB-231 breast): 22.6 µM
- GI50 (NCI-H226 lung): 2.06 µM
- TGI (NCI-H226 lung): 8.52 µM
- GI50 (NCI-H23 lung): 0.84 µM
- TGI (NCI-H23 lung): 4.69 µM
- GI50 (NCI-H460 lung): 0.37 µM
- TGI (NCI-H460 lung): 13.3 µM
- GI50 (NCI-H522 lung): 0.267 µM
- TGI (NCI-H522 lung): 0.785 µM
- GI50 (NCI/ADR-RES ovarian): 0.492 µM
- TGI (NCI/ADR-RES ovarian): 10.5 µM
- GI50 (OVCAR-3 ovarian): 0.449 µM
- TGI (OVCAR-3 ovarian): 2.28 µM
- GI50 (OVCAR-4 ovarian): 0.695 µM
- TGI (OVCAR-4 ovarian): 5.44 µM
- GI50 (OVCAR-5 ovarian): 2.61 µM
- TGI (OVCAR-5 ovarian): > 100 µM
- GI50 (OVCAR-8 ovarian): 0.86 µM
- TGI (OVCAR-8 ovarian): 13.1 µM
- GI50 (PC-3 prostate): 0.496 µM
- TGI (PC-3 prostate): 3.78 µM
- GI50 (SF-268 CNS): 0.476 µM
- TGI (SF-268 CNS): 8.42 µM
- GI50 (SF-295 CNS): 1.64 µM
- TGI (SF-295 CNS): 6.28 µM
- GI50 (SF-539 CNS): 0.365 µM
- TGI (SF-539 CNS): 2.21 µM
- GI50 (SK-MEL-2 melanoma): 0.36 µM
- TGI (SK-MEL-2 melanoma): 0.934 µM
- GI50 (SK-MEL-28 melanoma): 0.602 µM
- TGI (SK-MEL-28 melanoma): 7.45 µM
- GI50 (SK-OV-3 ovarian): 0.465 µM
- TGI (SK-OV-3 ovarian): 1.8 µM
- GI50 (SN12C renal): 0.635 µM
- TGI (SN12C renal): 19.3 µM
- GI50 (SNB-19 CNS): 1.09 µM
- TGI (SNB-19 CNS): 18.8 µM
- GI50 (SNB-75 CNS): 0.395 µM
- TGI (SNB-75 CNS): 1.64 µM
- GI50 (SW-620 colon): 0.455 µM
- TGI (SW-620 colon): 11.9 µM
- GI50 (T-47D breast): 0.737 µM
- TGI (T-47D breast): 3.95 µM
- GI50 (TK-10 renal): 1.91 µM
- TGI (TK-10 renal): 6.66 µM
- GI50 (U251 CNS): 0.597 µM
- TGI (U251 CNS): 10.9 µM
- GI50 (UACC-257 melanoma): 2.03 µM
- TGI (UACC-257 melanoma): 12.1 µM
- GI50 (UO-31 renal): 0.393 µM
- TGI (UO-31 renal): 3.2 µM
